Test results published in US20150148551A1, “GENISTEIN FOR REDUCING LEVELS OF STORAGE COMPOUNDS IN THE TREATMENT AND/OR PREVENTION OF LYSOSOMAL STORAGE DISEASES (LSDS)” (3G THERAPEUTICS, INC., priority 2012, published 2015).

Assays:
Assay type in all cases: cell-based, human
ST3GAL2 = test: DNA microarray, ST3GAL2 expression in fibroblasts exposed to genistein
Experimental: (§1) The experiments were conducted to characterise the transcriptomic profile of human fibroblast cells exposed to genistein, and in particular to determine the expression of genes encoding lysosomal enzymes involved in metabolism (i.e. synthesis and degradation) of organic substances. The absence or deficiency of these enzymes' activity is responsible for occurrence of various lysosomal storage diseases (LSD) (including MPS). The tested hypothesis assumed that genistein influences the expression of many genes, among which there are genes coding for enzymes required in metabolism of compounds, which are pathologically stored in LSD. The results provide important information regarding genistein action on the molecular level within the range of gene expression modulation by this substance. The experiment was conducted in biological quintuplicates. Human dermal fibroblasts (HDFa) were exposed in vitro for 1, 24 or 48 hours to: 30, 60 or 100 μM of genistein; 0.05% DMSO (K1); or were untreated (control cells) (K2), and total RNA was isolated and analysed.
(§2) Fibroblast cells were grown in Dulbecco (DMEM) medium supplemented with 10% fetal bovine serum (FBS) with the addition of 1% antibiotics and anti-fungal agents at 37° C. in humidified atmosphere of 5% CO2, until the required confluency was obtained.
(§3) To determine the effect of tested compound on the transcriptom of the fibroblast cells, the growth medium was replaced with fresh medium, either non-supplemented (0.05% DMSO), or containing genistein (30, 60 or 100 μM, in 0.05% DMSO). The exposure was done for 1, 24 or 48 hours.
(§4) Total RNA was isolated from fibroblasts using High Pure RNA Isolation Kit according to the protocol and then it was quantitatively evaluated using Quant-It™ RiboGreen® Assay Kit.
(§5) Biotinylated cRNA was prepared using Ambion Total PrepAmp Kit for Illumina arrays.
(§6) Standard hybridization and quantitative image analysis procedures—Illumina hybridization protocol and Illumina scanning protocol, were used.
(§7) Processing of the results was done during data definition, including: background correction (using background subtraction method), normalization (using quantile normalization algorithm with Illumina GenomeStudio software package: gene expression module version 1.9.0) and summarization (using method, which sums the values of signal intensities from a set of probes).

ACP5 = test: DNA microarray, ACP5 expression in fibroblasts exposed to genistein; conditions: for ACP5 fold change Average: 48 h vs DMSO
Experimental: as §1, §2, §3, §4, §5, §6, §7

CTNS = test: DNA microarray, CTNS expression in fibroblasts exposed to genistein; conditions: for CTNS fold change Average: 48 h vs DMSO
Experimental: as §1, §2, §3, §4, §5, §6, §7

IDUA = test: DNA microarray, IDUA expression in fibroblasts exposed to genistein; conditions: for IDUA fold change Average: 48 h vs DMSO
Experimental: as §1, §2, §3, §4, §5, §6, §7

ST3GAL6 = test: DNA microarray, ST3GAL6 expression in fibroblasts exposed to genistein
Experimental: as §1, §2, §3, §4, §5, §6, §7

ST3GAL4 = test: DNA microarray, ST3GAL4 expression in fibroblasts exposed to genistein
Experimental: as §1, §2, §3, §4, §5, §6, §7

FUCA1 = test: DNA microarray, FUCA1 expression in fibroblasts exposed to genistein; conditions: for FUCA1 fold change Average: 48 h vs DMSO
Experimental: as §1, §2, §3, §4, §5, §6, §7

Q: Which results are given for `O=c1c(-c2ccc(O)cc2)coc2cc(O)cc(O)c12` [genistein, 4′,5,7-trihydroxy-3-phenylchromen-4-one]?
A: ST3GAL2 fold change Average 1h30/1hK1 (ST3GAL2; 30 μM, 1 h vs 0.05% DMSO): 1.155 fold change; ST3GAL2 fold change Average 24h30/24hK1 (ST3GAL2; 30 μM, 24 h vs 0.05% DMSO): 0.7505 fold change; ST3GAL2 fold change Average 48h30/48hK1 (ST3GAL2; 30 μM, 48 h vs 0.05% DMSO): 0.797 fold change; ST3GAL2 fold change Average 1h60/1hK1 (ST3GAL2; 60 μM, 1 h vs 0.05% DMSO): 1.467 fold change; ST3GAL2 fold change Average 24h60/24hK1 (ST3GAL2; 60 μM, 24 h vs 0.05% DMSO): 0.5068 fold change; ST3GAL2 fold change Average 1h100/1hK1 (ST3GAL2; 100 μM, 1 h vs 0.05% DMSO): 1.338 fold change; ST3GAL2 fold change Average 24h100/24hK1 (ST3GAL2; 100 μM, 24 h vs 0.05% DMSO): 0.6299 fold change; ST3GAL2 fold change Average 48h100/48hK1 (ST3GAL2; 100 μM, 48 h vs 0.05% DMSO): 0.7215 fold change; ACP5 fold change Average 1h30/1hK1 (ACP5; 30 μM, 1 h vs 0.05% DMSO): 0.9865 fold change; ACP5 fold change Average (ACP5; 30 μM): 1.6259 fold change; ACP5 fold change Average 1h60/1hK1 (ACP5; 60 μM, 1 h vs 0.05% DMSO): 1.066 fold change; ACP5 fold change Average (ACP5; 60 μM): 1.7507 fold change; ACP5 fold change Average 1h100/1hK1 (ACP5; 100 μM, 1 h vs 0.05% DMSO): 1.141 fold change; ACP5 fold change Average (ACP5; 100 μM): 1.763 fold change; CTNS fold change Average 1h30/1hK1 (CTNS; 30 μM, 1 h vs 0.05% DMSO): 1.0024 fold change; CTNS fold change Average (CTNS; 30 μM): 1.5216 fold change; CTNS fold change Average 1h60/1hK1 (CTNS; 60 μM, 1 h vs 0.05% DMSO): 0.7997 fold change; CTNS fold change Average (CTNS; 60 μM): 1.577 fold change; CTNS fold change Average 1h100/1hK1 (CTNS; 100 μM, 1 h vs 0.05% DMSO): 0.7964 fold change; CTNS fold change Average (CTNS; 100 μM): 1.64 fold change; IDUA fold change Average 1h30/1hK1 (IDUA; 30 μM, 1 h vs 0.05% DMSO): 0.8853 fold change; IDUA fold change Average (IDUA; 30 μM): 1.1407 fold change; IDUA fold change Average 1h60/1hK1 (IDUA; 60 μM, 1 h vs 0.05% DMSO): 0.9788 fold change; IDUA fold change Average (IDUA; 60 μM): 1.212 fold change; IDUA fold change Average 1h100/1hK1 (IDUA; 100 μM, 1 h vs 0.05% DMSO): 0.9034 fold change; IDUA fold change Average (IDUA; 100 μM): 1.309 fold change; ST3GAL6 fold change Average 1h30/1hK1 (ST3GAL6; 30 μM, 1 h vs 0.05% DMSO): 1.234 fold change; ST3GAL6 fold change Average 24h30/24hK1 (ST3GAL6; 30 μM, 24 h vs 0.05% DMSO): 0.9878 fold change; ST3GAL6 fold change Average 48h30/48hK1 (ST3GAL6; 30 μM, 48 h vs 0.05% DMSO): 1.015 fold change; ST3GAL6 fold change Average 1h60/1hK1 (ST3GAL6; 60 μM, 1 h vs 0.05% DMSO): 1.072 fold change; ST3GAL6 fold change Average 1h100/1hK1 (ST3GAL6; 100 μM, 1 h vs 0.05% DMSO): 1.064 fold change; ST3GAL6 fold change Average 24h100/24hK1 (ST3GAL6; 100 μM, 24 h vs 0.05% DMSO): 0.7371 fold change; ST3GAL6 fold change Average 48h100/48hK1 (ST3GAL6; 100 μM, 48 h vs 0.05% DMSO): 0.7409 fold change; ST3GAL4 fold change Average 1h30/1hK1 (ST3GAL4; 30 μM, 1 h vs 0.05% DMSO): 0.9885 fold change; ST3GAL4 fold change Average 24h30/24hK1 (ST3GAL4; 30 μM, 24 h vs 0.05% DMSO): 0.782 fold change; ST3GAL4 fold change Average 48h30/48hK1 (ST3GAL4; 30 μM, 48 h vs 0.05% DMSO): 1.065 fold change; ST3GAL4 fold change Average 1h60/1hK1 (ST3GAL4; 60 μM, 1 h vs 0.05% DMSO): 0.9205 fold change; ST3GAL4 fold change Average 24h60/24hK1 (ST3GAL4; 60 μM, 24 h vs 0.05% DMSO): 0.9205 fold change; ST3GAL4 fold change Average 48h61/48hK1 (ST3GAL4; 60 μM, 48 h vs 0.05% DMSO): 0.9931 fold change; ST3GAL4 fold change Average 1h100/1hK1 (ST3GAL4; 100 μM, 1 h vs 0.05% DMSO): 0.8637 fold change; ST3GAL4 fold change Average 24h100/24hK1 (ST3GAL4; 100 μM, 24 h vs 0.05% DMSO): 0.6646 fold change; ST3GAL4 fold change Average 48h100/48hK1 (ST3GAL4; 100 μM, 48 h vs 0.05% DMSO): 0.8911 fold change; FUCA1 fold change Average 1h30/1hK1 (FUCA1; 30 μM, 1 h vs 0.05% DMSO): 0.9984 fold change; FUCA1 fold change Average (FUCA1; 30 μM): 1.3114 fold change; FUCA1 fold change Average 1h60/1hK1 (FUCA1; 60 μM, 1 h vs 0.05% DMSO): 1.022 fold change; FUCA1 fold change Average (FUCA1; 60 μM): 1.558 fold change
